Assay results from publication PMC9695012, “Diastereoselective Synthesis of Novel Spiro-Phosphacoumarins and Evaluation of Their Anti-Cancer Activity” (International Journal of Molecular Sciences, 2022).

What was measured:
[1] = test system: HuTu 80; details: for SI, HuTu 80: selectivity index vs Chang liver normal cells, ns = no selectivity
[2] = test system: Chang Liver; details: relative to 5-fluorouracil
[3] = test system: HuTu 80 cells; assay: Mitochondrial membrane potential, JC-10 flow cytometry; type: cell-based, human; details: IC50/2 and IC50, more pronounced at IC50/2
Procedure: The possibility of apoptosis through the mitochondrial pathway was assessed by flow cytometry using the JC-10 fluorescent dye (in the Mitochondria Membrane Potential Kit). In normal cells with a high membrane potential, JC-10 accumulates in the mitochondrial matrix, where it forms aggregates with a red fluorescence. However, in apoptotic cells, a decrease in the membrane potential occurs. JC-10 diffuses from mitochondria and turns into a monomeric form, emitting a green fluorescence, which is recorded by a flow cytometer (Figure 4). […] As in the experiment with V-Alexa Fluor 647, the cytotoxic effect of compound 2a was more pronounced at IC50/2 concentration.
Cells were harvested at 2000 rpm for 5 min and then washed twice with ice-cold PBS, followed by resuspension in JC-10 (10 µg/mL) and incubation at 37 °C for 10 min. After the cells were rinsed three times and suspended in PBS, the JC-10 fluorescence was observed by flow cytometry (Guava easy Cyte, MERCK, Rahway, NJ, USA).

[4] = test system: Chang Liver; assay: cells; details: Homo sapiens, read-out: IC50, Chang Liver
[5] = test system: M-HeLa; assay: cells; type: cell-based, human; details: for IC50: Homo sapiens, M-HeLa, MTT, cancer cell line, three independent experiments; for SI, M-HeLa: selectivity index vs Chang liver normal cells, ns = no selectivity
[6] = test system: HuTu 80; assay: cells; details: Homo sapiens, HuTu80, read-out: IC50, HuTu 80
[7] = test system: HuTu 80 cells; assay: Intracellular ROS, CellROX Deep Red flow cytometry; type: cell-based, human; details: for CellROX Deep Red fluorescence intensity (ROS production): control 700
Text: An increase in the production of reactive oxygen species (ROS) by compounds also characterizes the development of apoptosis along the mitochondrial pathway. Mitochondria are a potential source and target of ROS. ROS leads to dysfunction of the mitochondria and, consequently, to irreversible cell damage. In this regard, the effect of the lead compound 2a in HuTu 80 cells on ROS production was investigated using a flow cytometry assay and the CellROX® Deep Red flow cytometry kit. The data presented in Figure 6 show a significant increase in CellROX® Deep Red fluorescence intensity dominated by IC50/2.
HuTu 80 cells were incubated with compound 2a at concentrations of IC50 for 24 h. ROS generation was investigated using flow cytometry assay and CellROX® Deep Red flow cytometry kit. For this HuTu 80 cells were harvested at 2000 rpm for 5 min and then washed twice with ice-cold PBS, followed by resuspension in 0.1 mL of medium without FBS, to which was added 0.2 μL of CellROX® Deep Red and incubated at 37 °C for 30 min After being washed three times, the cells were suspended in PBS, and the production of ROS in the cells was immediately monitored using a flow cytometer Guava easy Cyte, MERCK, Rahway, NJ, USA).

[8] = test system: HuTu 80 cells; assay: Apoptosis induction, annexin V-Alexa Fluor 647 / propidium iodide flow cytometry; type: cell-based, human; details: 24-h incubation, most active at IC50/2 (12.5 µM), early apoptosis stage
Procedure: Cell Culture. HuTu 80 cells at 1 × 10^6 cells/well in a final volume of 2 mL were seeded into six-well plates. After 24 h of incubation, various concentrations of compound 2a were added to wells.
Cell Apoptosis Analysis. The cells were harvested at 2000 rpm for 5 min and then washed twice with ice-cold PBS, followed by resuspension in binding buffer. Next, the samples were incubated with 5 μL of annexin V- Alexa Fluor 647 (Sigma-Aldrich, St. Louis, MO, USA) and 5 μL of propidium iodide for 15 min at room temperature in the dark. Finally, the cells were analyzed by flow cytometry (Guava easy Cyte, MERCK, Rahway, NJ, USA) within 1 h. The experiments were repeated three times.

[9] = test system: HuTu 80 cells; assay: Cell cycle analysis by flow cytometry; type: cell-based, human; details: 24 h; for cells in G1/G0 phase: control 77%
Procedure: Taking into account the high potency and selectivity of the compound 2a, some additional experiments were carried out to study in more details its anti-cancer action. The mechanism of action of cytotoxic agents is often associated with cell cycle arrest, which leads to a slowing down of cell proliferation. So, we have performed a cell cycle analysis for the HuTu 80 cells using flow cytometry. […] Meanwhile, the proportion of cells in S phase decreased almost by half (8.2% vs. 4.7%).

[10] = test system: MCF-7; assay: cells; type: cell-based, human; details: for IC50: Homo sapiens, MCF7, MTT, cancer cell line, three independent experiments; for SI, MCF-7: selectivity index vs Chang liver normal cells, ns = no selectivity
[11] = Solubility in water; type: physicochemical; details: in words; reason for exclusion from cytotoxicity studies

Compound | melting point | SI, HuTu 80 [1] | IC50 [4] | IC50 [5] | SI, M-HeLa [5] | IC50 [6] | IC50 [10] | SI, MCF-7 [10] | further results
CN1c2c(c(=O)oc3ccccc23)CC12C(=O)c1ccccc1C2=O | > 300 °C | – | – | – | – | – | – | – | –
Cc1cc(C)c2c(c1C)OP(=O)(O)[C@@H]1CN(C)C3(C(=O)c4ccccc4C3=O)[C@H]21 [2a, (3aS,9bS)-4-hydroxy-2,6,7,9-tetramethyl-2,3,3a,9b-tetrahydrospiro[benzo [5,6][1,2]oxaphosphinino [3,4-c]pyrrole-1,2’-indene]-1’,3’-dione 4-oxide] | > 300 °C | >32 | > 800 µM | 52.6 ± 4.1 µM | >15 | 25.1 ± 1.9 µM | 82.3 ± 7.5 µM | – | cytotoxicity against HuTu 80 cell line, fold higher than reference 5-fluorouracil ([1]; relative to 5-fluorouracil): ~2.6 fold; cytotoxicity against Chang liver normal cell line, fold lower than reference compound [2]: more than 10 fold; effect on mitochondrial membrane potential (in words) [3]: significant decrease; CellROX Deep Red fluorescence intensity (ROS production) ([7]; IC50 (25 µM)): 1500; CellROX Deep Red fluorescence intensity (ROS production) ([7]; IC50/2 (12.5 µM)): 2000; effect on ROS production (in words) ([7]; IC50/2 and IC50, dominated by IC50/2): increase in ROS production; induction of apoptosis (in words) [8]: begins to induce apoptosis; effect on cell cycle (in words) ([9]; 12.5 and 25 µM): induces G0/G1 phase arrest; cells in S phase ([9]; IC50 (25 µM), control 8.2%): 4.7%; cells in G1/G0 phase ([9]; IC50 (25 µM)): 81.0%; cells in G1/G0 phase ([9]; IC50/2 (12.5 µM)): 79.0%
COc1ccc2c(c1)OP(=O)(O)[C@@H]1CN(C)C3(C(=O)c4ccccc4C3=O)[C@H]21 [2b, (3aS,9bS)-4-hydroxy-7-methoxy-2-methyl-2,3,3a,9b-tetrahydrospiro[benzo [5,6][1,2]oxaphosphinino [3,4-c]pyrrole-1,2’-indene]-1’,3’-dione 4-oxide] | – | 1.2 | 62 ± 5.5 µM | 59.7 ± 4.6 µM | 1 | 53.4 ± 4.2 µM | > 100 µM | ns | –
CN1C[C@@H]2[C@@H](c3c(O)c(Cl)cc(Cl)c3OP2(=O)O)C12C(=O)c1ccccc1C2=O [2c, (3aS,9bS)-6,8-dichloro-4,9-dihydroxy-2-methyl-2,3,3a,9b-tetrahydrospiro[benzo [5,6][1,2]oxaphosphinino [3,4-c]pyrrole-1,2’-indene]-1’,3’-dione 4-oxide] | > 300 °C | ns | > 100 µM | > 100 µM | ns | 100 ± 8.4 µM | 77.6 ± 6.2 µM | ns | –
CN1C[C@@H]2[C@@H](c3ccc4ccccc4c3OP2(=O)O)C12C(=O)c1ccccc1C2=O [2d, (3a’S,11a’S)-11’-hydroxy-2’-methyl-1’,2’,3a’,11a’-tetrahydrospiro[indene-2,3’-naphtho [2’,1’:5,6][1,2]oxaphosphinino [3,4-c]pyrrole]-1,3-dione 11’-oxide] | > 300 °C | ns | 57 ± 4.3 µM | 60 ± 5.4 µM | ns | 82.6 ± 7.6 µM | 92.2 ± 8.3 µM | ns | –
Cc1cc(C)c2c(c1C)OP(=O)(O)[C@@H]1[C@H]3CCCN3C3(C(=O)c4ccccc4C3=O)[C@H]21 [2e, (6aS,6bR,11aS)-6-hydroxy-1,3,4-trimethyl-6a,6b,7,8,9,11a-hexahydrospiro[benzo [5,6][1,2]oxaphosphinino [3,4-a]pyrrolizine-11,2’-indene]-1’,3’-dione 6-oxide] | > 300 °C | ns | > 100 µM | > 100 µM | ns | > 100 µM | > 100 µM | ns | –
O=C1c2ccccc2C(=O)C12[C@@H]1c3ccc4ccccc4c3OP(=O)(O)[C@@H]1[C@H]1CCCN12 [2f, (8a’S,8b’R,13a’S)-8’-hydroxy-8a’,8b’,9’,10’,11’,13a’-hexahydrospiro[indene-2,13’-naphtho [2’,1’:5,6][1,2]oxaphosphinino [3,4-a]pyrrolizine]-1,3-dione 8’-oxide] | > 300 °C | – | – | – | – | – | – | – | solubility in water [11]: extremely low
O=C1c2ccccc2C(=O)C12[C@@H]1c3ccc4cc(Br)ccc4c3OP(=O)(O)[C@@H]1[C@H]1CCCN12 [2g, (8a’S,8b’R,13a’S)-4’-bromo-8’-hydroxy-8a’,8b’,9’,10’,11’,13a’-hexahydrospiro[indene-2,13’-naphtho [2’,1’:5,6][1,2]oxaphosphinino [3,4-a]pyrrolizine]-1,3-dione 8’-oxide] | > 300 °C | – | – | – | – | – | – | – | solubility in water [11]: extremely low
O=c1[nH]cc(F)c(=O)[nH]1 [5-fluorouracil, reference compound] | – | 1.3 | – | 62 ± 4.7 µM | 1.4 | 65.2 ± 5.6 µM | 16.7 ± 1.3 µM | 5 | –
